Measured values taken from US20230129485A1, “SYSTEM AND METHOD FOR DETERMINING MATERIAL PROPERTIES OF MOLECULAR SYSTEMS FROM AN AB-INITIO PARAMETERIZED FORCE-FIELD” (InterX, Inc., priority 2021, published 2023).
Where two headings read alike, the source gives them in different places.

Key:
[1] = experimental, cited from earlier work; for Exp (hydration): Table 5
[2] = Free energy of hydration by COSMO-RS
In short: (§1)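 Implicit-solvent predictions of hydration free energy. MolPro supplied the COSMO solvation energies across the dataset. Predicted SMD and PCM values were received rather than computed here. Coverage for SMD, PCM and COSMO-RS matches the QM-parameterized force-field subset.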

[3] = Table 5; free energy of hydration, GAFF prediction taken from literature; cited from earlier work
[4] = Free energy of hydration predicted by polarizable AMOEBA force field, from literature; settings: Table 5; error of AMOEBA hydration free energy vs experiment
[5] = CHEX/H2O partition coefficient, experimental, cited from earlier work; for Exp (log D): Table 3; for logD Exp (logD): Table 4
[6] = Free energy of solvation in cyclohexane predicted with the QM-parameterized force field model (ARROW FF), MD and PIMD; settings: Table 4; for CHEX Arrow MD Error: error of MD cyclohexane solvation free energy vs experiment; for CHEX Arrow PIMD4 Error: error of PIMD4 cyclohexane solvation free energy vs experiment
From the text: Cyclohexane (CHEX) is nonpolar and equilibrates relatively quickly.
Particle-Mesh Ewald (PME) algorithm was used to compute the electrostatic interactions. A 32×32×32 grid mesh and 5th power spline interpolation order can be used to compute the inverse PME sum. 9 Å cutoffs were used to compute the direct PME sum as well as the exchange and dispersion interactions. Bulk corrections were applied to account for distance cut-off of dispersion interactions. Solvation free energies were computed by decoupling the interactions between the solute and the solvent molecules. Electrostatic, exchange-repulsion and dispersion interactions were switched off simultaneously using a lambda-dependent scaling (a scaling factor power=2 was used) and a soft-coring algorithm (maximal soft-coring radius=1.5 Å, soft-coring radius scaling factor power=1). 15 lambda points unequally spaced (X=0, 0.05, 0.1, 0.2, 0.3, 0.4, 0.5, 0.6, 0.7, 0.75, 0.8, 0.85, 0.9, 0.95, 1.0) were used to decouple the solute-solvent intermolecular interactions.
In some simulations of the QM-parameterized force field molecular simulation process, energy minimization (10,000 steps) using the steepest descent algorithm was initially performed on all the simulation systems. This was followed by a 50 ps equilibration and 1 ns production runs in the isothermal-isobaric ensemble (NPT). […] Pressure was maintained at 1 atm using a MTTK barostat (relaxation time=5 ps). A Multiple Time Step (MTS) algorithm was used to integrate the equations of motion both for the classical and path-integral runs. […] The calculations were performed using the QM-parameterized force field model.
Using the QM-parameterized force field model, the QM-parameterized force field device can compute or predict the solvation free energies using both the Bennett acceptance ratio (BAR) and thermodynamic integration (TI) method with <dH/dλ> values interpolated by cubic splines.

[7] = Free energy of hydration predicted with the QM-parameterized force field model (ARROW FF), classical MD and PIMD simulation in a water box; settings: for Arrow error: Table 5, error of Arrow PIMD8 hydration free energy vs experiment; for Arrow PIMD8 Error: absolute error vs Exp (hydration)
In short: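 Classical and PIMD runs (MTS integrator, MTTK barostat at 1 atm) followed minimization and 50 ps equilibration, with 1 ns NPT production per window. Fifteen unequally spaced lambda windows removed all solute-solvent interactions simultaneously in a 32 Å water box. Hydration free energy computed by Bennett acceptance ratio and thermodynamic integration.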

[8] = Free energy of hydration predicted by General Amber Force Field (GAFF), from literature; settings: Table 5; error of GAFF hydration free energy vs experiment
[9] = Table 5; free energy of hydration, AMOEBA prediction taken from literature; cited from earlier work
[10] = Free energy of hydration by COSMO implicit solvent model (MolPro ver. 2012); settings: absolute error vs Exp (hydration)
In short: as §1

[11] = Free energy of hydration by Polarizable Continuum Model (PCM); settings: absolute error vs Exp (hydration)
In short: as §1

[12] = CHEX/H2O partition coefficient (log D) predicted with the QM-parameterized force field model (ARROW FF)
In short: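 Cyclohexane/water partition coefficients were predicted by molecular simulation with a QM-parameterized force field, with bonded force constants and equilibrium values fitted to MP2/aug-cc-pVTZ energies. Solutes carried neutral functional groups, and results from four independent groups were averaged.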

[13] = implicit solvent model, values received; cited from earlier work
[14] = experimental, cited from earlier work
[15] = implicit solvent model, values received; cited from earlier work; remark: listed apart in the source
[16] = Free energy of hydration by Solvation Model Dielectric (SMD) implicit solvent model; settings: absolute error vs Exp (hydration)
In short: as §1

[17] = Table 3, free energy of hydration
[18] = Table 4, neutral amino-acid analogues
[19] = Table 3, absolute error of MD hydration free energy vs experiment
[20] = Table 3, absolute error of PIMD8 hydration free energy vs experiment
[21] = Table 4, error of MD hydration free energy vs experiment
[22] = Table 4, error of PIMD8 hydration free energy vs experiment
[23] = Table 4, error of MD logD vs experiment
[24] = Table 4, error of PIMD logD vs experiment
[25] = Table 3, free energy of solvation in cyclohexane
[26] = Table 4, solvation free energy in cyclohexane

| SMILES | water Exp (hydration) [1, 17] | water Exp (hydration) [1, 18] | Exp (hydration) ([1]; free energy of hydration) | GAFF [3] | AMOEBA error [4] | logD Exp (logD) [5] | CHEX Arrow MD Error [6] | CHEX Arrow PIMD4 Error [6] | water Arrow MD Error [7, 19] | water Arrow PIMD8 Error [7, 20] | water Arrow MD Error [7, 21] | water Arrow PIMD8 Error [7, 22] | Arrow error [7] | Arrow PIMD8 Error [7] | GAFF error [8] | AMOEBA [9] | COSMO/Molpro Error [10] | PCM Error [11] | CHEX Exp (solvation) [14, 25] | CHEX Exp (solvation) [14, 26] | other results |
| --- | --- | --- | --- | --- | --- | --- | --- | --- | --- | --- | --- | --- | --- | --- | --- | --- | --- | --- | --- | --- | --- |
| CCCC [Butane] | 2.10 kcal/mol | 2.10 kcal/mol | 2.10 kcal/mol | 2.54 kcal/mol | 0.99 kcal/mol | 3.54 | 0.46 kcal/mol | 0.20 kcal/mol | 0.70 kcal/mol | 0.04 kcal/mol | 0.70 kcal/mol | 0.04 kcal/mol | 0.04 kcal/mol | 0.04 kcal/mol | 0.44 kcal/mol | 1.11 kcal/mol | 2.65 kcal/mol | 2.30 kcal/mol | -2.72 kcal/mol | -2.72 kcal/mol | COSMO-RS error [2]: 0.03 kcal/mol; Exp (log D) [5]: 3.54; log D Arrow MD Error ([12]; Table 3, absolute error of MD log D vs experiment): 0.18; log D Arrow PIMD Error ([12]; Table 3, absolute error of PIMD log D vs experiment): 0.17; logD Arrow MD Error [12, 23]: 0.18; logD Arrow PIMD Error [12, 24]: 0.17; SMD free energy of hydration [13]: 2.00 kcal/mol; PCM free energy of hydration [15]: -0.20 kcal/mol; SMD Error [16]: 0.10 kcal/mol |
| CCSC [EthylMethylSulfide] | -1.5 kcal/mol | -1.5 kcal/mol | -1.50 kcal/mol | 0.34 kcal/mol | 0.48 kcal/mol | 1.67 | 0.83 kcal/mol | 0.51 kcal/mol | 0.47 kcal/mol | 0.11 kcal/mol | 0.47 kcal/mol | 0.11 kcal/mol | 0.11 kcal/mol | 0.11 kcal/mol | 1.84 kcal/mol | -1.98 kcal/mol | 2.70 kcal/mol |  | -3.78 kcal/mol | -3.78 kcal/mol | Exp (log D) [5]: 1.67; log D Arrow MD Error [12]: 0.27; log D Arrow PIMD Error [12]: 0.29; logD Arrow MD Error [12]: 0.27; logD Arrow PIMD Error [12]: 0.29 |
| CS [MethaneThiol] | -1.219 kcal/mol | -1.219 kcal/mol | -1.24 kcal/mol | -0.83 kcal/mol | 0.98 kcal/mol | 0.91 | 0.39 kcal/mol | 0.30 kcal/mol | 0.79 kcal/mol | 0.43 kcal/mol | 0.79 kcal/mol |  | 0.43 kcal/mol | 0.43 kcal/mol | 0.41 kcal/mol | -0.26 kcal/mol | 2.71 kcal/mol | 0.88 kcal/mol |  | -2.46 kcal/mol | Exp (hydration) free energy of hydration [1]: -1.22 kcal/mol; logD Arrow MD Error [12, 23]: 0.29; logD Arrow PIMD Error [12, 24]: 0.09; SMD free energy of hydration [13]: -0.80 kcal/mol; PCM free energy of hydration [15]: -2.10 kcal/mol; SMD Error [16]: 0.42 kcal/mol |
| CO [Methanol] |  |  |  | -4.37 kcal/mol | 0.32 kcal/mol | −2.80 | 0.42 kcal/mol | 0.24 kcal/mol | 0.28 kcal/mol | 0.35 kcal/mol | 0.28 kcal/mol | 0.35 kcal/mol | 0.33 kcal/mol | 0.35 kcal/mol | 0.74 kcal/mol | -4.79 kcal/mol | 1.37 kcal/mol | 1.91 kcal/mol | -1.29 kcal/mol | -1.29 kcal/mol | COSMO-RS error [2]: 0.18 kcal/mol; Exp (log D) [5]: −2.80; log D Arrow MD Error [12]: 0.10; log D Arrow PIMD Error [12]: 0.43; logD Arrow MD Error [12]: 0.10; logD Arrow PIMD Error [12]: 0.43; SMD Error [16]: 0.91 kcal/mol |
| Cc1ccccc1 [Toluene] | -0.89 kcal/mol | -0.89 kcal/mol | -0.89 kcal/mol | -0.71 kcal/mol | 0.64 kcal/mol |  | 0.94 kcal/mol | 0.62 kcal/mol | 0.83 kcal/mol | 0.10 kcal/mol | 0.83 kcal/mol | 0.10 kcal/mol | 0.10 kcal/mol | 0.10 kcal/mol | 0.18 kcal/mol | -1.53 kcal/mol | 2.41 kcal/mol | 0.71 kcal/mol | -4.90 kcal/mol | -4.90 kcal/mol | COSMO-RS error [2]: 0.12 kcal/mol; SMD free energy of hydration [13]: -0.30 kcal/mol; PCM free energy of hydration [15]: -1.60 kcal/mol; SMD Error [16]: 0.59 kcal/mol |
